Measurements from patent EP1143981B1, “USE OF N-GLYCOLNEURAMINIC ACID AND ITS DERIVATIVES FOR THE MANUFACTURE OF A MEDICAMENT FOR THE TREATMENT OF HIV INFECTIONS” (Glukor, Inc., priority 1998, dated 2000).

What was measured:
[1] = test system: PBMCs; type: cell-based; conditions: human
Protocol: Fresh human PBMCs were isolated from voluntary Red Cross donors, seronegative for HIV and HBV. Leukophoresed blood was diluted 1:1 with Dulbecco's PBS, layered over 14 mL of Ficoll-Hypaque density gradient in a 50mL centrifuge and then centrifuged for 30 minutes at 600 x g. Banded PBMCs were gently aspirated from the resulting interface and subsequently washed twice with PBS by low speed centrifugation. […] PBMCs were maintained in this medium at a concentration of 1-2 x 10^6 cells/mL with bi-weekly medium changes until used in the assay. […]
(§1) Tetrazolium dye staining of screening plates: After 6 days of incubation (37°C with 5% CO2), the test plates were analyzed by staining with the tetrazolium dye XTT (2,3-b (2-methoxy-4-nitro-5-sulfophenyl)-2H-tetrazolium -5-carboxanilide). XTT-tetrazolium is metabolized by mitochondrial enzymes of metabolically active cells to a soluble formazan product, allowing the rapid quantitative analysis of the inhibition of HIV-induced cell killing by anti-HIV compounds. […] Plates were sealed with adhesive plate sealers and inverted several times to mix the soluble formazan product and the plate was read spectrophotometrically at 450nm with a Molecular Devices Vmax plate reader. Indices such as %CPE Reduction (cytopathic effects), %Cell Viability, IC25, IC50, IC95, TC25, TC50, and TC95 and other indices were calculated. […]

[2] = in vitro; type: cell-based; conditions: human, cem-ss cells
Protocol: (§2) Cell Preparation: Prior to infection, CEM-SS cells were grown in complete tissue culture medium (RPMI 1640 medium with 10% heat-inactivated fetal bovine serum, 2mM L-glutamine, 100 U/mL penicillin, 100 µg/mL streptomycin, 10 µg/mL gentamycin) and transferred to T-150 flasks. On the day preceding the assay, the cells were split 1:2 to assure the cells would be in an exponential growth phase at time of infection. On the day of assay, the cells were washed twice with tissue culture medium and resuspended in fresh tissue culture medium. Total cell and viability counting were performed using a hemacytometer and trypan blue dye exclusion. Cell viability was greater than 95% for the cells to be utilized in the assay. […]
as §1, with “reader.” for “reader. Indices such as %CPE Reduction (cytopathic effects), %Cell Viability, IC25, IC50, IC95, TC25, TC50, and TC95 and other indices were calculated.”

[3] = test system: HIV-1IIIB; assay: CEM-SS cell-based anti-HIV assay (XTT); conditions: 3.2µM to 1 mM; CEM-SS cells
[4] = test system: HIV-1RF; assay: CEM-SS cell-based anti-HIV assay (XTT); conditions: 3.2µM to 1 mM; CEM-SS cells
Protocol: as §2
Virus Preparation: Pre-tittered aliquots of HIV-1ROJO and HIV-1RF were removed from the freezer (-80°C) and thawed to room temperature in a biological safety cabinet. The virus was resuspended and diluted into tissue culture medium such that the amount of virus added to each well in a volume of 50 µL will be the amount determined to give complete cell killing at 6 days post-infection.
Tetrazolium dye staining of screening plates: After 6 days of incubation (37°C with 5% CO2), the test plates were analyzed by staining with the tetrazolium dye XTT (2,3-b (2-methoxy-4-nitro-5-sulfophenyl)-2H-tetrazolium -5-carboxanilide). […]

[5] = test system: HIV-1IIIB; assay: PBMC cell-based anti-HIV assay; conditions: PBMCs; laboratory strain
Protocol: For the standard PBMC assay, PHA-P stimulated cells from at least two normal donors were pooled, diluted in fresh medium to a final concentration of 1 x 10^6 cells/mL, and plated in the interior wells of a 96 well round bottom microplate at 50 µL/well (5 x 10^4 cells/well). Test drug dilutions were prepared at a 2X concentration in microfuge tubes and 100 µL of each concentration was placed in appropriate wells in a standard format. A predetermined dilution of virus stock was placed in each test well (50 µL, final MOI ≅ 0.1). Wells with cells and virus alone were used for virus control. Separate plates were prepared identically without virus for drug cytotoxicity studies using an XTT assay system. The PBMC cultures were maintained for seven days following infection, at which time cell-free supernatant samples were collected and assayed for reverse transcriptase activity as described below.
Reverse Transcriptase Activity Assay: A microtiter based reverse transcriptase (RT) reaction was utilized as described by Buckheit et al., (1991), AIDS Research and Human Retroviruses, 7:295-302. Tritiated thymidine triphosphate (^3H-TTP) was suspended in distilled H2O at 5 Ci/mL. […] Opti-Fluor-O (Packard) was added to each sample and incorporated radioactivity was quantified utilizing a Wallac 1450 MicroBeta Plus liquid scintillation counter. […]

## O=C(CO)N[C@H]1[C@H]([C@H](O)[C@H](O)CO)OC(O)(C(=O)O)C[C@@H]1O (some centres unmarked) [N-glycolylneuraminic acid]
[1]
  CC50: > 1000 µM
[2]
  CC50 at 144 h: > 1000 µM
[3]
  anti-HIV activity: did not display anti-HIV activity
[4]
  anti-HIV activity: did not display anti-HIV activity
[5]
  anti-HIV activity: inactive
